The record followed here is US9085576B2 (AMGEN INC., priority 2013, dated 2015).

Where a name gives a salt, the structure may show the parent alone. Read-outs that look alike come from different tables or passages of the source.

The target in one assay is BACE (Homo sapiens (Human), UniProt P56817). Kind of assay: In vitro BACE cell-based assay (Aβ40 in conditioned medium, sandwich ELISA). On the technique in general: An ELISA detects its analyte on a solid surface through an enzyme-linked reagent.
Another assay deals with Cathepsin D (Cat D) (Homo sapiens (Human), UniProt P07339). Description: In vitro enzymatic Cathepsin D (Cat D) FRET assay. The format is biochemical.
For assay [1], the target named is Beta Secretase enzyme (BACE) (Homo sapiens (Human), UniProt P56817). Description: In vitro enzymatic BACE FRET assay. Format: biochemical. As to conditions: read-out: BACE1 Enzyme assay IC50.
The next assay relates to Abeta 40. Kind of assay: In vivo inhibition of beta-secretase: Abeta 40 reduction in CSF and brain of the rat. The note with it: after 4 hrs; for % reduction of rat CSF levels at 10 pmk / % reduction of rat CSF levels (3 mpk): Abeta 40 in rat CSF; for % reduction of rat CSF levels at 10 pmk / % reduction of rat brain levels at 10 mpk: 10 mpk; for % reduction of rat brain levels at 10 mpk / % reduction of rat brain levels (3 mpk): Abeta 40 in rat brain.

Cathepsin D (Cat D), sequence (P07339 65-412, species assumed): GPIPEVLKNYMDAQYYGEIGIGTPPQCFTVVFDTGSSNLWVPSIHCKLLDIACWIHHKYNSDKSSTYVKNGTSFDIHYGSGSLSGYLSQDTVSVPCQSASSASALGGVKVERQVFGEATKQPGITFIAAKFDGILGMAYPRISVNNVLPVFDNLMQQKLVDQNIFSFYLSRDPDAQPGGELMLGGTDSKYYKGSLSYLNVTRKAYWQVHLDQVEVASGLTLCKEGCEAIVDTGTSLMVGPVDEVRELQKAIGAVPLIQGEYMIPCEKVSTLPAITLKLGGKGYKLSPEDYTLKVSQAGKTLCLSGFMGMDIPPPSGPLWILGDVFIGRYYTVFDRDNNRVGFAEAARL
BACE, sequence (P56817 46-501, species assumed): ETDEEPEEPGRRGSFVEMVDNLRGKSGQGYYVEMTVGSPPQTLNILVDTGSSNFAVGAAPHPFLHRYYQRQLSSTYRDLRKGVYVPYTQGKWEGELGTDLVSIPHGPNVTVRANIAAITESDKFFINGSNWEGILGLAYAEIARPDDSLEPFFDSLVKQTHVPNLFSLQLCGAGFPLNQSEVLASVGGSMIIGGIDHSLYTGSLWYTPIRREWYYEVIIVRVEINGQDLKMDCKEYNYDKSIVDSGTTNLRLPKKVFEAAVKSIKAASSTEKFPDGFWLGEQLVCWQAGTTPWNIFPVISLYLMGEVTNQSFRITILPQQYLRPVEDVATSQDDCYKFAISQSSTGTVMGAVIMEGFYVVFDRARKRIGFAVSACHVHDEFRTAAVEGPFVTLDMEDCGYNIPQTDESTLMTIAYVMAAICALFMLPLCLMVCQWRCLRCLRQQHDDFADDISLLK
Beta Secretase enzyme (BACE), sequence (P56817 46-501): as the sequence (P56817 46-501, species assumed) above
Excerpt for Abeta 40: In Vivo Inhibition of Beta-Secretase
Several animal models, including mouse, rat, dog, and monkey, may be used to screen for inhibition of beta-secretase activity in vivo following administration of a test compound sample. […] A separate group of animals receive 2% hydroxypropyl methylcellulose, 1% Tween80 alone, containing no test compound, and serve as a vehicle-control group. At the end of the test period, animals are sacrificed and brain tissues, plasma or cerebrospinal fluid are collected. […] Homogenates are centrifuged at 355,000 g, 4° C. for 30 minutes. CSF or brain supernatants are then analyzed for the presence of A-beta peptide by specific sandwich ELISA assays based on ECL (Electrochemiluminescence) technology. For example, rat Abeta40 is measured using biotinylated-4G8 (Signet) as a capture antibody and Fab40 (an in-house antibody specific to the C-terminal of Abeta40) as a detection antibody.
Actual vehicles used: Oral: 2% HPMC, 1% Tween80, pH 2.2

Consider `Cc1cc(Cl)cnc1C(=O)Nc1ccc(F)c([C@@]2(C(F)F)N=C(N)O[C@@H]3C[C@@H]32)c1` [Example 43, N-(3-((1R,5S,6R)-3-amino-5-(difluoromethyl)-2-oxa-4-azabicyclo[4.1.0]hept-3-en-5-yl)-4-fluorophenyl)-5-chloro-3-methylpicolinamide], for which the IC50 (commonly the concentration needed to halve the response being measured) is 0.0314 µM on BACE; > 400 µM on Cathepsin D (Cat D) (Cat D FRET assay, first procedure, read-out: Cat D IC50); 596 µM on Cathepsin D (Cat D) (read-out: CatD IC50); 0.0225 µM in assay [1]. The “% reduction of rat CSF levels at 10 pmk” value in the assay on Abeta 40 was 70%. Besides, the “% reduction of rat brain levels at 10 mpk” value (“% reduction … at 10 mpk” for short) in the assay with Abeta 40 stood at 59%.

Molecule `Cc1cc(C#N)cnc1C(=O)Nc1ccc(F)c([C@@]2(C(F)F)N=C(N)O[C@@H]3C[C@@H]32)c1` [Example 44, N-(3-((1R,5S,6R)-3-amino-5-(difluoromethyl)-2-oxa-4-azabicyclo[4.1.0]hept-3-en-5-yl)-4-fluorophenyl)-5-cyano-3-methylpicolinamide] returned an IC50 against BACE of 0.017 µM. The IC50 on Cathepsin D (Cat D) (read-out: CatD IC50) came to 376 µM. The IC50 in assay [1] turned out to be 0.0142 µM. In the assay with Abeta 40, the “% reduction of rat CSF levels (3 mpk)” value is reported as 69 (3 mpk) %, the “% reduction of rat CSF levels at 10 pmk” value is reported as 80%, the “% reduction of rat brain levels (3 mpk)” value was 52 (3 mpk) % and the “% reduction … at 10 mpk” value was 73%.

For `COc1cc(C#N)cnc1C(=O)Nc1ccc(F)c([C@@]2(C(F)F)N=C(N)O[C@@H]3C[C@@H]32)c1` [Example 45, N-(3-((1R,5S,6R)-3-amino-5-(difluoromethyl)-2-oxa-4-azabicyclo[4.1.0]hept-3-en-5-yl)-4-fluorophenyl)-5-cyano-3-methoxypicolinamide], the IC50 turned out to be 0.0372 µM on BACE, 3450 µM on Cathepsin D (Cat D) (read-out: CatD IC50) and 0.0555 µM in assay [1]. In addition, in the assay with Abeta 40, the “% reduction of rat CSF levels at 10 pmk” value is on record as 31%. The “% reduction … at 10 mpk” value in the assay with Abeta 40 is 6%.

For `N#Cc1cnc(C(=O)Nc2ccc(F)c([C@@]3(C(F)F)N=C(N)O[C@@H]4C[C@@H]43)c2)c(Cl)c1` [Example 66, N-(3-((1R,5S,6R)-3-amino-5-(difluoromethyl)-2-oxa-4-azabicyclo[4.1.0]hept-3-en-5-yl)-4-fluorophenyl)-3-chloro-5-cyanopicolinamide], at Cathepsin D (Cat D) (read-out: CatD IC50), the IC50 is 825 µM. In the assay on Abeta 40, the “% reduction of rat CSF levels at 10 pmk” value is reported as 59% and the “% reduction … at 10 mpk” value was found to be 42%.

In the case of `COc1cnc(C(=O)Nc2ccc(F)c([C@@]3(C(F)F)N=C(N)O[C@@H]4C[C@@H]43)c2)c(Cl)c1` [Example 70, N-(3-((1R,5S,6R)-3-amino-5-(difluoromethyl)-2-oxa-4-azabicyclo[4.1.0]hept-3-en-5-yl)-4-fluorophenyl)-3-chloro-5-methoxypicolinamide], the IC50 stood at 0.0386 µM at BACE, 379 µM at Cathepsin D (Cat D) (read-out: CatD IC50) and 0.0568 µM in assay [1]. The “% reduction of rat CSF levels at 10 pmk” value with Abeta 40 was 65%. Moreover, in the assay with Abeta 40, the “% reduction … at 10 mpk” value was 51%.

`NC1=N[C@@](c2cc(NC(=O)c3ncc(Cl)cc3Cl)ccc2F)(C(F)F)[C@H]2C[C@H]2O1` [Example 71, N-(3-((1R,5S,6R)-3-amino-5-(difluoromethyl)-2-oxa-4-azabicyclo[4.1.0]hept-3-en-5-yl)-4-fluorophenyl)-3,5-dichloropicolinamide]: the IC50 at Cathepsin D (Cat D) (read-out: CatD IC50) is 478 µM. For the same molecule, in the assay on Abeta 40, the “% reduction of rat CSF levels at 10 pmk” value came out at 80% and the “% reduction … at 10 mpk” value is listed as 73%.

With `NC1=N[C@@](c2cc(NC(=O)c3ccc(Br)cn3)ccc2F)(C(F)F)[C@H]2C[C@H]2O1` [Example 74, N-(3-((1R,5S,6R)-3-amino-5-(difluoromethyl)-2-oxa-4-azabicyclo[4.1.0]hept-3-en-5-yl)-4-fluorophenyl)-5-bromopicolinamide], the half-maximal inhibitory concentration (IC50) came out at 0.0181 µM against BACE, 282 µM on Cathepsin D (Cat D) (read-out: CatD IC50) and 0.0247 µM in assay [1]. Also, in the assay on Abeta 40, the “% reduction of rat CSF levels at 10 pmk” value is reported as 56%. The “% reduction … at 10 mpk” value in the assay on Abeta 40 came to 46%.

`NC1=N[C@@](c2cc(NC(=O)c3ccc(Cl)cn3)ccc2F)(C(F)F)[C@H]2C[C@H]2O1` [Example 76, N-(3-((1R,5S,6R)-3-amino-5-(difluoromethyl)-2-oxa-4-azabicyclo[4.1.0]hept-3-en-5-yl)-4-fluorophenyl)-5-chloropicolinamide]: the IC50 against BACE came out at 0.0302 µM; at Cathepsin D (Cat D) (read-out: CatD IC50), 684 µM; in assay [1] it was 0.0266 µM. In addition, the “% reduction of rat CSF levels at 10 pmk” value in the assay with Abeta 40 is recorded as 64%. Moreover, in the assay on Abeta 40, the “% reduction … at 10 mpk” value turned out to be 60%.

In the case of `N#Cc1ccc(C(=O)Nc2ccc(F)c([C@@]3(C(F)F)N=C(N)O[C@@H]4C[C@@H]43)c2)nc1` [Example 77, N-(3-((1R,5S,6R)-3-amino-5-(difluoromethyl)-2-oxa-4-azabicyclo[4.1.0]hept-3-en-5-yl)-4-fluorophenyl)-5-cyanopicolinamide], the IC50 on Cathepsin D (Cat D) (read-out: CatD IC50) turned out to be 698 µM. In the assay with Abeta 40, the “% reduction of rat CSF levels (3 mpk)” value is on record as 66 (3 mpk) %, the “% reduction of rat CSF levels at 10 pmk” value was found to be 78%, the “% reduction of rat brain levels (3 mpk)” value is recorded as 46 (3 mpk) % and the “% reduction … at 10 mpk” value is reported as 71%.

Turning to `NC1=N[C@](CF)(c2cc(NC(=O)c3cnc(OCC(F)(F)F)cn3)cc(Cl)c2F)[C@H]2C[C@H]2O1` [Example 90, N-(3-((1R,5S,6R)-3-amino-5-(fluoromethyl)-2-oxa-4-azabicyclo[4.1.0]hept-3-en-5-yl)-5-chloro-4-fluorophenyl)-5-(2,2,2-trifluoroethoxy)pyrazine-2-carboxamide], the values for the IC50 (at BACE; at Cathepsin D (Cat D) (read-out: CatD IC50); in assay [1]) were 0.0213 µM, 913 µM and 0.0136 µM, respectively. The “% reduction of rat CSF levels at 10 pmk” value in the assay with Abeta 40 is 48%. In the assay on Abeta 40, the “% reduction … at 10 mpk” value is recorded as 31%.

In the case of `N#Cc1ccc(C(=O)Nc2ccc(Cl)c([C@@]3(C(F)F)N=C(N)O[C@@H]4C[C@@H]43)c2)nc1` [Example 93, N-(3-((1R,5S,6R)-3-amino-5-(difluoromethyl)-2-oxa-4-azabicyclo[4.1.0]hept-3-en-5-yl)-4-chlorophenyl)-5-cyanopicolinamide], the IC50 at Cathepsin D (Cat D) (read-out: CatD IC50) came out at 1300 µM. Further, in the assay on Abeta 40, the “% reduction of rat CSF levels at 10 pmk” value worked out at 76% and the “% reduction … at 10 mpk” value was determined as 83%.

As for `C#CCOc1cnc(C(=O)Nc2ccc(F)c([C@@]3(C(F)F)N=C(N)O[C@@H]4C[C@@H]43)c2)cn1` [Example 95, N-(3-(((1R,5S,6R)-3-amino-5-(difluoromethyl)-2-oxa-4-azabicyclo[4.1.0]hept-3-en-5-yl)-4-fluorophenyl)-5-(prop-2-yn-1-yloxy)pyrazine-2-carboxamide trifluoroacetate], the IC50 at BACE amounted to 0.008 µM; at Cathepsin D (Cat D) (read-out: CatD IC50) it was 143 µM; in assay [1], 0.0035 µM. For the same molecule, the “% reduction of rat CSF levels at 10 pmk” value in the assay on Abeta 40 is given as 82%. For the same molecule, in the assay on Abeta 40, the “% reduction … at 10 mpk” value was found to be 77%.

`C#C[C@H](C)Oc1cnc(C(=O)Nc2ccc(F)c([C@@]3(C(F)F)N=C(N)O[C@@H]4C[C@@H]43)c2)cn1` [Example 162, N-(3-((1R,5S,6R)-3-amino-5-(difluoromethyl)-2-oxa-4-azabicyclo[4.1.0]hept-3-en-5-yl)-4-fluorophenyl)-5-((S)-but-3-yn-2-yloxy)pyrazine-2-carboxamide]: at Cathepsin D (Cat D) (read-out: CatD IC50), the IC50 amounted to 1060 µM. Moreover, in the assay with Abeta 40, the “% reduction of rat CSF levels at 10 pmk” value is recorded as 11% and the “% reduction … at 10 mpk” value is given as −7%.

Turning to `NC1=N[C@@](c2cc(NC(=O)c3nn(C(F)F)cc3Cl)ccc2F)(C(F)F)[C@H]2C[C@H]2O1` [Example 163, N-(3-((1R,5S,6R)-3-amino-5-(difluoromethyl)-2-oxa-4-azabicyclo[4.1.0]hept-3-en-5-yl)-4-fluorophenyl)-4-chloro-1-(difluoromethyl)-1H-pyrazole-3-carboxamide], on Cathepsin D (Cat D) (read-out: CatD IC50), the IC50 turned out to be 464 µM. Moreover, in the assay on Abeta 40, the “% reduction of rat CSF levels at 10 pmk” value worked out at 33% and the “% reduction … at 10 mpk” value came to 14%.

On to `NC1=N[C@@](c2cc(NC(=O)c3ncc(Br)cn3)ccc2F)(C(F)F)[C@H]2C[C@H]2O1` [Example 267, N-(3-((1R,5S,6R)-3-amino-5-(difluoromethyl)-2-oxa-4-azabicyclo[4.1.0]hept-3-en-5-yl)-4-fluorophenyl)-5-bromopyrimidine-2-carboxamide], for which the IC50 at BACE worked out at 0.015 µM. Also, in the assay on Abeta 40, the “% reduction of rat CSF levels at 10 pmk” value is −1% and the “% reduction … at 10 mpk” value was determined as 11%.

On to `Cc1cc(Cl)cnc1C(=O)Nc1cc(C)c(F)c([C@@]2(C(F)F)N=C(N)O[C@@H]3C[C@@H]32)c1` [Example 303, N-(3-((1R,5S,6R)-3-amino-5-(difluoromethyl)-2-oxa-4-azabicyclo[4.1.0]hept-3-en-5-yl)-4-fluoro-5-methylphenyl)-5-chloro-3-methylpicolinamide], for which the IC50 at Cathepsin D (Cat D) (read-out: CatD IC50) is 335 µM. For the same molecule, in the assay on Abeta 40, the “% reduction of rat CSF levels at 10 pmk” value came out at 57% and the “% reduction … at 10 mpk” value is 50%.

For `Cc1cc(NC(=O)c2ccc(C#N)cn2)cc([C@@]2(C(F)F)N=C(N)O[C@@H]3C[C@@H]32)c1F` [Example 390, N-(3-((1R,5S,6R)-3-amino-5-(difluoromethyl)-2-oxa-4-azabicyclo[4.1.0]hept-3-en-5-yl)-4-fluoro-5-methylphenyl)-5-cyanopicolinamide], in the assay with Abeta 40, the “% reduction of rat CSF levels at 10 pmk” value is reported as 71% and the “% reduction … at 10 mpk” value worked out at 54%.

As to `NC1=N[C@@](c2cc(NC(=O)c3c(F)cc(F)cc3F)ccc2F)(C(F)F)[C@H]2C[C@H]2O1` [Example 451, N-(3-((1R,5S,6R)-3-amino-5-(difluoromethyl)-2-oxa-4-azabicyclo[4.1.0]hept-3-en-5-yl)-4-fluorophenyl)-2,4,6-trifluorobenzamide], the IC50 at BACE was found to be 6.28 µM; at Cathepsin D (Cat D) (read-out: CatD IC50) it was 960 µM; in assay [1], 5.38 µM.
